In ChEMBL document CHEMBL1201862, “PubChem BioAssay data set” (2004):
One block for each compound: values may come before it. Activity calls are given as the source filed them.

Legend:
[1] = non-specific cell cytotoxicity, dose response, cytotoxicity control for PAX8 inhibitor project, plate reader, dry powder samples (AID 743021); assay type: functional, cell-based
[2] = inhibitors of CMV-promoter luciferase reporter, dose response, counter-screen for Pax8 inhibitor project, cell-based, HEK293, luminescence, dry powder (AID 743020); assay type: functional
Paired box protein Pax-8 = Paired box protein Pax-8 (Homo sapiens, UniProt Q06710); assay: inhibitors of PAX8-driven TPO luciferase reporter, dose response, RMG-I cells, cherry-pick (AID 687027); assay type: functional, cell-based;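 note: luciferase reporter driven by Pax8 target thyroperoxidase promoter measured by SteadyGlo luminescence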
Chain of Paired box protein Pax-8 (Q06710 whole entry): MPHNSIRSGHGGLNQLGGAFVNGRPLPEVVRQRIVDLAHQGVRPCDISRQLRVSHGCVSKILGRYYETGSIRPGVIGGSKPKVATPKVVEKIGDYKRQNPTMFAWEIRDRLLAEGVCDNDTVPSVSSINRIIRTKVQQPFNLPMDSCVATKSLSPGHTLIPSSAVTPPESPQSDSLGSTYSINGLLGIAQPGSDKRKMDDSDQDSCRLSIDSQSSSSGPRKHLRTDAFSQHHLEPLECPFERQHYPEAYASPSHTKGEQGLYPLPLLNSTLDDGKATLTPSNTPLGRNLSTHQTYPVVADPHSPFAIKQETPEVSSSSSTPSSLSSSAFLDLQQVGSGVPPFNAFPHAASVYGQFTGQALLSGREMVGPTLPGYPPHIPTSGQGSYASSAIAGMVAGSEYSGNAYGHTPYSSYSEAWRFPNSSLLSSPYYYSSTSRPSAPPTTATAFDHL

[3] = cytotoxicity in OVCAR4 cells, dose response, cytotoxicity control for PAX8 inhibitor project, cell-based, plate reader, dry powder, SA11 (AID 743150); assay type: functional; conditions: OVCAR-4
[4] = cytotoxicity in OVCAR8 ovarian cancer cells, dose response, PAX8 project, cell-based, plate reader, dry powder samples (AID 743197); assay type: functional; conditions: OVCAR-8
[5] = cytotoxicity dependent on PAX8, dose response, cell-based, plate reader, dry powder (AID 743049); assay type: functional
[6] = cytotoxicity in OV-90 ovarian cancer cells, dose response, PAX8 inhibitor project, cell-based, plate reader, dry powder, SA8 (AID 743149); assay type: functional
[7] = PAX5 activity inhibitors, dose response, selectivity assay for PAX8 inhibitor project, cell-based, plate reader, dry powder samples (AID 743047); assay type: functional;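 note: HEK293 cells carrying a Pax5 driven CD19 promoter luciferase reporter; potency of inhibitors that lower reporter luminescence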
[8] = cytotoxicity in COV434 cells, dose response, cytotoxicity control for PAX8 inhibitor project, cell-based, plate reader, dry powder, SA7 (AID 743145); assay type: functional
[9] = PAX2 cell-based inhibition, dose response, selectivity assay for PAX8 inhibitor project, plate reader, dry powder samples (AID 743048); assay type: functional;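 note: HEK293 cells carrying a WT1 promoter luciferase reporter driven by expressed Pax2; potency is for inhibition of Pax2 driven reporter signal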
[10] = IOSE-T80 ovarian epithelial cell cytotoxicity, dose response, cytotoxicity control for PAX8 inhibitor project, plate reader, dry powder samples (AID 743045); assay type: functional, cell-based
[11] = IGROV1 ovarian cancer cell cytotoxicity, dose response, PAX8 inhibitor project, plate reader, dry powder samples (AID 743043); assay type: functional, cell-based; conditions: IGROV-1
[12] = cytotoxicity in COV362 ovarian cancer cells, dose response, cytotoxicity control for PAX8 inhibitor project, cell-based, plate reader, dry powder, SA12 (AID 743144); assay type: functional
[13] = biological target: T1, Scavenger receptor class B member 1 (Mus musculus, UniProt Q61009); assay: inhibitors of SR-BI-mediated HDL uptake, dose response, cell-based, ldlA[mSR-BI] CHO, DiI fluorescence, dry powder, set 10 (AID 624029); assay type: functional
T1 sequence (Q61009 whole entry): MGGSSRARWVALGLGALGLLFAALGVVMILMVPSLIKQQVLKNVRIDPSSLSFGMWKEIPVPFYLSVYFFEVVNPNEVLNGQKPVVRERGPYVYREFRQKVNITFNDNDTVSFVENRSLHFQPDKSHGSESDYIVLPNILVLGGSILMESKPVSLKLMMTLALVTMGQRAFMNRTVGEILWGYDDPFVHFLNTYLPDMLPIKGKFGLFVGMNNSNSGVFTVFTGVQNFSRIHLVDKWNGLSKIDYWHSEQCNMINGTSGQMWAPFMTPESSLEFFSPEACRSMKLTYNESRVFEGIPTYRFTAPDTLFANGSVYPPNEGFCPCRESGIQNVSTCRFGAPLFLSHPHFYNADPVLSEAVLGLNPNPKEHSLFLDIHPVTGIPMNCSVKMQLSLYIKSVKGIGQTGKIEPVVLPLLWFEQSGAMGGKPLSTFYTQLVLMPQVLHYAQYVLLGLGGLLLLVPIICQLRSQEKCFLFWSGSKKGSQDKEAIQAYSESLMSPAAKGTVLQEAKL

[14] = biological target: T1, Scavenger receptor class B member 1; assay: inhibitors of SR-BI dependent HDL uptake, dose response, ldlA[mSR-BI] CHO cells, fluorescence plate reader, dry powder, set 9 (AID 623880); assay type: functional, cell-based
[15] = HEK293 Cytotoxicity Assay Measured in Cell-Based System Using Plate Reader - 7071-01_Inhibitor_Dose_CherryPick_Activity_Set2.; assay type: functional
HEK293 = assay: HEK293T cell cytotoxicity, dose response, cytotoxicity control, ATP luminescence, cherry-pick samples (AID 687005); assay type: functional, cell-based; conditions: Homo sapiens;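 note: cells exposed to compound for 48 hours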
Protein Wnt-3a = Protein Wnt-3a (Mus musculus, UniProt P27467); assay: SAR analysis of small molecule antagonists of Gli-SUFU in a Wnt3a luminescent reporter assay.; assay type: functional
Chain of Protein Wnt-3a (P27467 whole entry): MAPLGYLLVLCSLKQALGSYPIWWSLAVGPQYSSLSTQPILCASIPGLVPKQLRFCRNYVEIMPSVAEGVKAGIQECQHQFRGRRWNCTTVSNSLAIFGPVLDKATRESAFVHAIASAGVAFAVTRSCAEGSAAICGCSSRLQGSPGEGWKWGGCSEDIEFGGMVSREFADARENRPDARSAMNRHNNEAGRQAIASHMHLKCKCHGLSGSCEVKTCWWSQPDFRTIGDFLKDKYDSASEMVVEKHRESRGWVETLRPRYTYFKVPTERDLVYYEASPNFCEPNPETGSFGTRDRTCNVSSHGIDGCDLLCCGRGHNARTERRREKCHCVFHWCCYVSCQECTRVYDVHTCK

Mu-type opioid receptor = Mu-type opioid receptor (Homo sapiens, UniProt P35372); assay: Late-stage results from the probe development effort to identify antagonists of OPRK1: luminescence-based cell-based dose response OPRM1 counterscreen.; assay type: functional
Chain of Mu-type opioid receptor (P35372 whole entry): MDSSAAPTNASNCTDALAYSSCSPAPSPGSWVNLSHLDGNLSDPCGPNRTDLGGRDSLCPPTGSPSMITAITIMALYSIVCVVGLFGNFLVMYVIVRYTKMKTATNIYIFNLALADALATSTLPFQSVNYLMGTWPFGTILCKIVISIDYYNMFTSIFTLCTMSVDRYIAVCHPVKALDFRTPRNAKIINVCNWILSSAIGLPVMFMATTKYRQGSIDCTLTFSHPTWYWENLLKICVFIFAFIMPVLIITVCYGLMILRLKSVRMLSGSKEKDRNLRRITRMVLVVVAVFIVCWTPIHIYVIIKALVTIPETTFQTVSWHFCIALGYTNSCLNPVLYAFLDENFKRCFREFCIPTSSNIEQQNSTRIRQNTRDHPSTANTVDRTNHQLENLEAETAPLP

[16] = biological target: Delta-type opioid receptor (Homo sapiens, UniProt P41143); assay: Late-stage results from the probe development effort to identify antagonists of OPRK1: fluorescence-based cell-based dose response OPRD1 counterscreen.; assay type: functional
Chain of Delta-type opioid receptor (P41143 whole entry): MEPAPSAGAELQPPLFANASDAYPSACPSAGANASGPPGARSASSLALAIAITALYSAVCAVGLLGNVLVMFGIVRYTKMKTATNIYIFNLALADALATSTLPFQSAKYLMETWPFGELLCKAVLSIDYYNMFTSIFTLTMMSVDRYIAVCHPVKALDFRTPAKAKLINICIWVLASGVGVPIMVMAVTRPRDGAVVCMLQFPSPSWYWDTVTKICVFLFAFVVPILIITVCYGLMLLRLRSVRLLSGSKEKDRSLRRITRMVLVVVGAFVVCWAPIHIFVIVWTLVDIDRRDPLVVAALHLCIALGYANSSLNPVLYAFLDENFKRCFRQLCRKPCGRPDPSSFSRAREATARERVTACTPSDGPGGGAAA

[17] = biological target: Potassium channel subfamily K member 3 (Homo sapiens, UniProt O14649); assay: TASK1 (KCNK3) potassium channel inhibitors, SAR follow-up, CHO cells, FluxOR thallium flux (AID 652212); assay type: functional
Chain of Potassium channel subfamily K member 3 (O14649 whole entry): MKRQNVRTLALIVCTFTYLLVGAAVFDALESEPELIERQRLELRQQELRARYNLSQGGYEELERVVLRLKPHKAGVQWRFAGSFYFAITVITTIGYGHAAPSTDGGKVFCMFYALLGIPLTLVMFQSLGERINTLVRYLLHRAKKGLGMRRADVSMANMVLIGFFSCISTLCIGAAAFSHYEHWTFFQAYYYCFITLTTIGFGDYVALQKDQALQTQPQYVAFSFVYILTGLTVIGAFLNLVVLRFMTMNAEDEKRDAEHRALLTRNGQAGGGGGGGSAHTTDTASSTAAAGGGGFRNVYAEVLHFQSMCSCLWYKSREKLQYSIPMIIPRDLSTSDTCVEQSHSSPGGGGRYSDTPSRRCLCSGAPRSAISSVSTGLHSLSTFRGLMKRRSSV

[18] = A375 melanoma cell viability loss, dose response, counter-screen for MITF inhibitor project, CellTiter-Glo luminescence, dry powder, set 4 (AID 624364); assay type: functional, cell-based; conditions: A-375;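 note: A375 melanoma cells are MITF independent so this is a counter screen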
[19] = A375 melanoma cell cytotoxicity, dose response, counter-screen for MITF inhibitor project, CellTiter-Glo luminescence, dry powder, set 2 (AID 624489); assay type: functional, cell-based; conditions: A-375;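 note: actives are compounds lowering A375 viability meaning general cytotoxicity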

AC50 [13]: 0.00538 µM (active)
AC50 [14]: 0.00684 µM (active)
Compound: COCC(=O)N1CCc2cc(-c3csc(NC(=O)c4cc(OC)cc(OC)c4)n3)ccc21

IC50 (Protein Wnt-3a): > 21.8 µM (inactive)
Compound: N#Cc1ccc(C(=O)Nc2cc(N3CCCCC3)ncn2)cc1

IC50 (Mu-type opioid receptor): 4 µM (active)
IC50 [16]: 7 µM (active)
Compound: COC(=O)c1cc(Br)cnc1N1CCC(NC2CCCC2)CC1

IC50 [17]: 0.129 µM (active)
Compound: CCOc1ccccc1NC(=O)c1cccc(NC(=O)C2CCCO2)c1 (centres undefined)

The next lines start with the compound.

Compound: COc1ccccc1S(=O)(=O)N(C)C[C@H]1Oc2cc(C#CCC3CCCC3)ccc2S(=O)(=O)N([C@@H](C)CO)C[C@H]1C
AC50 [1]: 51.9 µM (active)
AC50 [2]: 55.2 µM (active)
AC50 (Paired box protein Pax-8): 9.5 µM (active)

Compound: CCCNC(=O)N(C)C[C@H]1N[C@@H](CO)[C@@H]1c1ccc(C2=CCCCC2)cc1
AC50 [3]: 6.07 µM (active)
AC50 [4]: 14.4 µM (active)
AC50 [5]: 10.1 µM (active)
AC50 [6]: 14.5 µM (active)
AC50 [7]: > 16 µM (inactive)
AC50 [8]: 18.2 µM (active)
AC50 [9]: 8.91 µM (active)
AC50 [10]: 25.9 µM (active)
AC50 [11]: 16.3 µM (active)
AC50 [12]: 10.7 µM (active)
AC50 (Paired box protein Pax-8): 3.47 µM (active)

Compound: Cc1ccc(S(=O)(=O)N2CC[C@@H]3[C@H](CO)Nc4ccc(-c5ccccc5F)cc4[C@@H]32)cc1
AC50 [15]: 44.6 µM (active)
AC50 (HEK293): 44.6 µM (active)

Compound: O=C(NC1=C(N2CCCCC2)C(=O)c2ccccc2C1=O)c1ccccc1
AC50 [18]: 54.4 µM (active)
AC50 [19]: > 70 µM (inactive)
